The text below walks through data of the supplement of paper PMC10307832.

The subject of the first assay is NCI-H1915. The assay is described as follows: relative viability (nuclei count vs DMSO), 5 days (fraction); higher = more cells survive. To be noted: first compound 2.53 µM. In outline:
(§1)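 Cells from lung cancer lines were seeded into 1536-well plates and, one day later, dosed by pin tool. Treatments were either a single drug or a fixed dose of an anchor drug with five library-drug doses (not always all listed) in √10 steps. After 5 days, nuclei were stained in a one-step fixation (final 0.05% Triton X-100, 1% formaldehyde, 1 ug/ml Hoechst) and counted on 4× images, and relative viability is the treated-to-vehicle nuclei ratio, as the median of duplicate plates.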
In turn, `Oc1nc(-c2ccc(C(F)(F)F)cc2)nc2c1CSCC2` [XAV939] + O=C(c1cc(Cc2n[nH]c(=O)c3ccccc23)ccc1F)N1CCN(C(=O)C2CC2)CC1 [Olaparib] (partner 8 µM) came in with a relative viability of 0.275.
As for `Oc1nc(-c2ccc(C(F)(F)F)cc2)nc2c1CSCC2` [XAV939] + CC(=O)c1c(C)c2cnc(Nc3ccc(N4CCNCC4)cn3)nc2n(C2CCCC2)c1=O [Palbociclib] (partner 0.5 µM), the relative viability was 0.511.
The same measure, in the same setting: the value for `C=C1C(=O)O[C@@H](CCCCCCCC)[C@@H]1C(=O)O` [C-75] + CC(=O)c1c(C)c2cnc(Nc3ccc(N4CCNCC4)cn3)nc2n(C2CCCC2)c1=O [Palbociclib] (partner 0.5 µM) was 0.472.

The assay is the same for the next values; noted with them: first compound 8 µM.
For the compound `C=C1C(=O)O[C@@H](CCCCCCCC)[C@@H]1C(=O)O` [C-75] + Nc1nc2[nH]cc(CCc3ccc(C(=O)N[C@@H](CCC(=O)O)C(=O)O)cc3)c2c(=O)[nH]1 [Pemetrexed] (partner 0.2 µM), the relative viability was 0.527.
Still for that read-out and setting: next, `C=C1C(=O)O[C@@H](CCCCCCCC)[C@@H]1C(=O)O` [C-75] + CC(=O)c1c(C)c2cnc(Nc3ccc(N4CCNCC4)cn3)nc2n(C2CCCC2)c1=O [Palbociclib] (partner 0.5 µM): 0.5.

In a further assay the test system is NCI-H1944. The description is as above. To be noted: first compound 0.08 µM. In outline: as §1
`Oc1nc(-c2ccc(C(F)(F)F)cc2)nc2c1CSCC2` [XAV939] + O=C(CCCCCCC(=O)Nc1ccccc1)NO [Vorinostat] (partner 1 µM) registered a relative viability of 0.55.
As to `C=C1C(=O)O[C@@H](CCCCCCCC)[C@@H]1C(=O)O` [C-75] + Nc1nc2[nH]cc(CCc3ccc(C(=O)N[C@@H](CCC(=O)O)C(=O)O)cc3)c2c(=O)[nH]1 [Pemetrexed] (partner 0.2 µM), the relative viability amounted to 0.645.
Still for that read-out and setting: the value for `Oc1nc(-c2ccc(C(F)(F)F)cc2)nc2c1CSCC2` [XAV939] + O=C(c1cc(Cc2n[nH]c(=O)c3ccccc23)ccc1F)N1CCN(C(=O)C2CC2)CC1 [Olaparib] (partner 8 µM) was 0.421; that for `Oc1nc(-c2ccc(C(F)(F)F)cc2)nc2c1CSCC2` [XAV939] + CC(=O)c1c(C)c2cnc(Nc3ccc(N4CCNCC4)cn3)nc2n(C2CCCC2)c1=O [Palbociclib] (partner 0.5 µM) was 0.347.
The same measure, in the same setting: the value for `C=C1C(=O)O[C@@H](CCCCCCCC)[C@@H]1C(=O)O` [C-75] + CC(=O)c1c(C)c2cnc(Nc3ccc(N4CCNCC4)cn3)nc2n(C2CCCC2)c1=O [Palbociclib] (partner 0.5 µM) was 0.34.

Still in this assay, the particulars now being: first compound 0.253 µM.
The compound `Oc1nc(-c2ccc(C(F)(F)F)cc2)nc2c1CSCC2` [XAV939] + O=C(CCCCCCC(=O)Nc1ccccc1)NO [Vorinostat] (partner 1 µM) registered a relative viability of 0.625.
As to `C=C1C(=O)O[C@@H](CCCCCCCC)[C@@H]1C(=O)O` [C-75] + Nc1nc2[nH]cc(CCc3ccc(C(=O)N[C@@H](CCC(=O)O)C(=O)O)cc3)c2c(=O)[nH]1 [Pemetrexed] (partner 0.2 µM), the relative viability is 0.784.
Same read-out and setting: the value for `Oc1nc(-c2ccc(C(F)(F)F)cc2)nc2c1CSCC2` [XAV939] + O=C(c1cc(Cc2n[nH]c(=O)c3ccccc23)ccc1F)N1CCN(C(=O)C2CC2)CC1 [Olaparib] (partner 8 µM) was 0.279; that for `Oc1nc(-c2ccc(C(F)(F)F)cc2)nc2c1CSCC2` [XAV939] + CC(=O)c1c(C)c2cnc(Nc3ccc(N4CCNCC4)cn3)nc2n(C2CCCC2)c1=O [Palbociclib] (partner 0.5 µM) was 0.337; that for `C=C1C(=O)O[C@@H](CCCCCCCC)[C@@H]1C(=O)O` [C-75] + CC(=O)c1c(C)c2cnc(Nc3ccc(N4CCNCC4)cn3)nc2n(C2CCCC2)c1=O [Palbociclib] (partner 0.5 µM) was 0.296.

The same assay, now with this note: first compound 0.8 µM.
Regarding `Oc1nc(-c2ccc(C(F)(F)F)cc2)nc2c1CSCC2` [XAV939] + O=C(CCCCCCC(=O)Nc1ccccc1)NO [Vorinostat] (partner 1 µM), the relative viability stood at 0.508.
The same measure, in the same setting: the value for `C=C1C(=O)O[C@@H](CCCCCCCC)[C@@H]1C(=O)O` [C-75] + Nc1nc2[nH]cc(CCc3ccc(C(=O)N[C@@H](CCC(=O)O)C(=O)O)cc3)c2c(=O)[nH]1 [Pemetrexed] (partner 0.2 µM) was 0.509; that for `Oc1nc(-c2ccc(C(F)(F)F)cc2)nc2c1CSCC2` [XAV939] + O=C(c1cc(Cc2n[nH]c(=O)c3ccccc23)ccc1F)N1CCN(C(=O)C2CC2)CC1 [Olaparib] (partner 8 µM) was 0.365; that for `Oc1nc(-c2ccc(C(F)(F)F)cc2)nc2c1CSCC2` [XAV939] + CC(=O)c1c(C)c2cnc(Nc3ccc(N4CCNCC4)cn3)nc2n(C2CCCC2)c1=O [Palbociclib] (partner 0.5 µM) was 0.34.
Still for that read-out and setting: next, `C=C1C(=O)O[C@@H](CCCCCCCC)[C@@H]1C(=O)O` [C-75] + CC(=O)c1c(C)c2cnc(Nc3ccc(N4CCNCC4)cn3)nc2n(C2CCCC2)c1=O [Palbociclib] (partner 0.5 µM): 0.279.

Still in this assay, the particulars now being: first compound 2.53 µM.
`Oc1nc(-c2ccc(C(F)(F)F)cc2)nc2c1CSCC2` [XAV939] + O=C(CCCCCCC(=O)Nc1ccccc1)NO [Vorinostat] (partner 1 µM) displayed a relative viability of 0.354.
Still for that read-out and setting: next, `C=C1C(=O)O[C@@H](CCCCCCCC)[C@@H]1C(=O)O` [C-75] + Nc1nc2[nH]cc(CCc3ccc(C(=O)N[C@@H](CCC(=O)O)C(=O)O)cc3)c2c(=O)[nH]1 [Pemetrexed] (partner 0.2 µM): 0.564; `Oc1nc(-c2ccc(C(F)(F)F)cc2)nc2c1CSCC2` [XAV939] + O=C(c1cc(Cc2n[nH]c(=O)c3ccccc23)ccc1F)N1CCN(C(=O)C2CC2)CC1 [Olaparib] (partner 8 µM): 0.342.
Still for that read-out and setting: the value for `Oc1nc(-c2ccc(C(F)(F)F)cc2)nc2c1CSCC2` [XAV939] + CC(=O)c1c(C)c2cnc(Nc3ccc(N4CCNCC4)cn3)nc2n(C2CCCC2)c1=O [Palbociclib] (partner 0.5 µM) was 0.267; that for `C=C1C(=O)O[C@@H](CCCCCCCC)[C@@H]1C(=O)O` [C-75] + CC(=O)c1c(C)c2cnc(Nc3ccc(N4CCNCC4)cn3)nc2n(C2CCCC2)c1=O [Palbociclib] (partner 0.5 µM) was 0.305.

Still in this assay, the particulars now being: first compound 8 µM.
Turning to `C=C1C(=O)O[C@@H](CCCCCCCC)[C@@H]1C(=O)O` [C-75] + Nc1nc2[nH]cc(CCc3ccc(C(=O)N[C@@H](CCC(=O)O)C(=O)O)cc3)c2c(=O)[nH]1 [Pemetrexed] (partner 0.2 µM), the relative viability was 0.57.
On the same count and under the same terms, the value for `C=C1C(=O)O[C@@H](CCCCCCCC)[C@@H]1C(=O)O` [C-75] + CC(=O)c1c(C)c2cnc(Nc3ccc(N4CCNCC4)cn3)nc2n(C2CCCC2)c1=O [Palbociclib] (partner 0.5 µM) was 0.305.

A further assay concerns NCI-H1975. The assay is described as above. To be noted: first compound 0.08 µM. In outline: as §1
Compound `Oc1nc(-c2ccc(C(F)(F)F)cc2)nc2c1CSCC2` [XAV939] + O=C(CCCCCCC(=O)Nc1ccccc1)NO [Vorinostat] (partner 1 µM) showed a relative viability of 0.784.
Still for that read-out and setting: the value for `C=C1C(=O)O[C@@H](CCCCCCCC)[C@@H]1C(=O)O` [C-75] + Nc1nc2[nH]cc(CCc3ccc(C(=O)N[C@@H](CCC(=O)O)C(=O)O)cc3)c2c(=O)[nH]1 [Pemetrexed] (partner 0.2 µM) was 0.281; that for `Oc1nc(-c2ccc(C(F)(F)F)cc2)nc2c1CSCC2` [XAV939] + O=C(c1cc(Cc2n[nH]c(=O)c3ccccc23)ccc1F)N1CCN(C(=O)C2CC2)CC1 [Olaparib] (partner 8 µM) was 0.712; that for `Oc1nc(-c2ccc(C(F)(F)F)cc2)nc2c1CSCC2` [XAV939] + CC(=O)c1c(C)c2cnc(Nc3ccc(N4CCNCC4)cn3)nc2n(C2CCCC2)c1=O [Palbociclib] (partner 0.5 µM) was 0.54.
